Patent US20230159510A1, “NOVEL PRMT5 INHIBITORS” (AMGEN INC., priority 2020, published 2023)
Like-named read-outs stand apart in the source and are kept apart here.

What was measured:
PRMT5/MEP50 = PRMT5/MEP50 (Homo sapiens, UniProt O14744); assay: MTase-Glo methyl transferase assay, Method B (FL-Histone H2A, 1 µM MTA, 1 h pre-incubation); assay type: biochemical; set-up: purchased Reaction Biology Corp RD-11-292; details: read-out: PRMT5 MTase Glo Ki (nM, Meth. B)
Experimental: Method B: The PRMT5 inhibitory activity of test compounds was determined using the MTase-Glo™ assay (Promega), which monitors the product (S-adenosyl homocysteine or SAH) of methyltransferase reactions. The PRMT5 MTase-Glo assay was conducted in a 384-well white ProxiPlate (PerkinElmer) in a total volume of 16 µL. The PRMT5 enzymatic reaction (in 8 µL) contained 4 nM PRMT5/MEP50 (Reaction Biology Corp, catalog no.: RD-11-292), 5 µM S-adenosyl methionine (SAM, Promega), 2.5 µM FL-Histone H2A (BPS Bioscience, catalog no.: 52021), 1 µM 5′-methylthioadenosine (MTA, Sigma) and ½ log serially diluted compounds in a reaction buffer of 50 mM Tris (pH 8.0), 50 mM NaCl, 0.01% Tween 20, 0.01% BSA, and 1 mM TCEP. Test compounds were pre-incubated with PRMT5/MEP50, SAM, and MTA for 1 hour before addition of FL-Histone H2A to initiate the PRMT5 reaction. The reaction was allowed to proceed for 20 hours at room temperature and was then terminated by addition of 1 µL of 9X MTase-Glo™ Reagent (Promega). After a 30-minute incubation at room temperature, 8 µL of MTase-Glo™ Detection Solution (Promega) was added and the plate was incubated at room temperature for an additional 30 minutes. The light signal corresponding to the amount of SAH produced by the PRMT5 reaction was subsequently measured using an Envision multimode reader (PerkinElmer). IC50 and KI values were obtained by analyzing dose-response curves using GraphPad Prism®.

HCT116 MTAP null cells = assay: HCT116 proliferation assay, MTAP null cells (CellTiter-Glo, 6 days); assay type: cell-based; details: read-out: Protif_ HCT116-MTAP null IC50
How it was run: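 Compound titrations (top dose 1 or 10 µM, 1:3 dilution, 8 or 9 concentrations) and a DMSO control were applied to cells cultured overnight beforehand in RPMI 1640 with 10% FBS at 37° C, 5% CO2; viability was scored from luminescence.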

Sequence of PRMT5/MEP50 (O14744 2-637 limits assumed): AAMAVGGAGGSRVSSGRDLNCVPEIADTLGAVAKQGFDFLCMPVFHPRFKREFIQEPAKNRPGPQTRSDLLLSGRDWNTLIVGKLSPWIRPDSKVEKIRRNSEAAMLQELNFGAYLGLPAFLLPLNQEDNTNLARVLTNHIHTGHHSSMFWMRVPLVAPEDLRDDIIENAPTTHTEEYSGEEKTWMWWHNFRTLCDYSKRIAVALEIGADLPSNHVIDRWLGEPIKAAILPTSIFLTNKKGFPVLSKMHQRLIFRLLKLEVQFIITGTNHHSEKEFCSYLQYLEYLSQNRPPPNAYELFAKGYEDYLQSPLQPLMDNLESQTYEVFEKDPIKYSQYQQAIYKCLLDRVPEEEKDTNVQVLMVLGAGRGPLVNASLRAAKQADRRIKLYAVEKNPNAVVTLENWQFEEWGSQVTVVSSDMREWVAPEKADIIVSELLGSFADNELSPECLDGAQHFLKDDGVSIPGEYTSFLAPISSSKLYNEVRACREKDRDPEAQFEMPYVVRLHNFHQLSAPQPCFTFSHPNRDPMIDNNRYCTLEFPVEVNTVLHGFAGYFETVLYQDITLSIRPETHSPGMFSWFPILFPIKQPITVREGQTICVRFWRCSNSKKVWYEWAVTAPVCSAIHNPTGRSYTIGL
Sequence of PRMT5/MEP50 (Q9BQA1 2-342 partner limits assumed): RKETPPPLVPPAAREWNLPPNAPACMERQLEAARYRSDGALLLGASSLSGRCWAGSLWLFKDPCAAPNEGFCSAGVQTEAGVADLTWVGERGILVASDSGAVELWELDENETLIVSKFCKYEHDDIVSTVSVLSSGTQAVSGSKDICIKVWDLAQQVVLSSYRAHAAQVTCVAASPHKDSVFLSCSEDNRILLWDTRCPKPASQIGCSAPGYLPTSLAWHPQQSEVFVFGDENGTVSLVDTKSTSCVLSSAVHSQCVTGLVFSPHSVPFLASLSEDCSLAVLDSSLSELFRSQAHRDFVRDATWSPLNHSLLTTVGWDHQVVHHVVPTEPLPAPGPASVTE

| SMILES | Ki (PRMT5/MEP50) [nM] | IC50 (HCT116 MTAP null cells; HCT116-MTAP null, 144 h) [nM] | IC50 (HCT116 MTAP null cells) [nM] |
| --- | --- | --- | --- |
| Cc1cc2cc(C(=O)N(Cc3ccc(C(F)(F)F)cn3)C(C)c3ccc4c(c3)NC(=O)CO4)ccc2nc1N (centres unmarked) [Example 625, 2-amino-3-methyl-N-(1-(3-oxo-3,4-dihydro-2H-benzo[b][1,4]oxazin-6-yl)ethyl)-N-((5-(trifluoromethyl)pyridin-2-yl)methyl)quinoline-6-carboxamide] | 1.99 | 180 |  |
| Cc1cc2cc(C(=O)N(Cc3ccc(C(F)(F)F)cc3)Cc3c(F)cncc3F)ccc2nc1N [Example 685, 2-amino-N-[(3,5-difluoro-4-pyridyl)methyl]-3-methyl-N-[[4-(trifluoromethyl)phenyl]methyl] quino line-6-carboxamide] | 1.22 |  | 51 |
| CNC(=O)c1ccc(CN(Cc2ccc(C(F)(F)F)cn2)C(=O)c2ccc3nc(N)c(C)cc3c2)cc1 [Example 638, 2-amino-3-methyl-N-[[4-(methylcarbamoyl)phenyl]methyl]-N-[[5-(trifluoromethyl)-2-pyridyl]methyl] quinoline-6-carboxamide] | 1.9 | 200 |  |
| Cc1cc2cc(C(=O)N(Cc3ccc(C(F)(F)F)cn3)Cc3ccnn3C)ccc2nc1N [Example 686, 2-amino-3-methyl-N-[(2-methylpyrazol-3-yl)methyl]-N-[[5-(trifluoromethyl)-2-pyridyl]methyl] quinoline-6-carboxamide] | 5.12 | 590 |  |
| Cc1cc2cc(C(=O)N(Cc3ccc(C(F)(F)F)cn3)C(C)CC#N)ccc2nc1N (centres unmarked) [Example 693, 2-amino-N-(2-cyano-1-methyl-ethyl)-3-methyl-N-[[5-(trifluoromethyl)-2-pyridyl]methyl] quinoline-6-carboxamide] | 6.14 | 97 |  |
| Cc1cc2cc(C(=O)N(Cc3ccc(C(F)(F)F)cn3)Cc3cccnc3-n3cncn3)ccc2nc1N [Example 652, 2-amino-3-methyl-N-[[2-(1,2,4-triazol-1-yl)-3-pyridyl]methyl]-N-[[5-(trifluoromethyl)-2-pyridyl]methyl] quinoline-6-carboxamide] | 3 to 7 | 160 |  |
| Cc1cc2cc(C(=O)N(Cc3ccc(C(F)(F)F)cn3)Cc3ccnc4[nH]ccc34)cnc2nc1N [Example 635, 7-amino-6-methyl-N-(1H-pyrrolo[2,3-b]pyridin-4-ylmethyl)-N-[[5-(trifluoromethyl)-2-pyridyl]methyl]-1,8-naphthyridine-3-carboxamide] | 1.29 |  | 18 |
| C#CCCN(Cc1ccc(C(F)(F)F)cn1)C(=O)c1ccc2nc(N)c(C)cc2c1 [Example 659, 2-amino-N-but-3-ynyl-3-methyl-N-[[5-(trifluoromethyl)-2-pyridyl]methyl] quinoline-6-carboxamide] | 4.33 | 251 |  |
| Cc1cc2cc(C(=O)N(Cc3ccc(C(F)(F)F)cn3)CC3CCCC(O)C3)ccc2nc1N (centres unmarked) [Example 678, 2-amino-N-[(3-hydroxycyclohexyl)methyl]-3-methyl-N-[[5-(trifluoromethyl)-2-pyridyl]methyl] quinoline-6-carboxamide] | 5.57 | 500 |  |
| Cc1cc2cc(C(=O)N(Cc3ccc(C(F)(F)F)cn3)C(C)c3cc[nH]c(=O)c3)ccc2nc1N (centres unmarked) [Example 664, 2-amino-3-methyl-N-[1-(2-oxo-1H-pyridin-4-yl)ethyl]-N-[[5-(trifluoromethyl)-2-pyridyl]methyl] quinoline-6-carboxamide] | 9.1 | 670 |  |
| Cc1cc2cc(C(=O)N(Cc3ccc(C(F)(F)F)cn3)Cc3ccccc3-n3cccn3)ccc2nc1N [Example 654, 2-amino-3-methyl-N-[(2-pyrazol-1-ylphenyl)methyl]-N-[[5-(trifluoromethyl)-2-pyridyl]methyl] quinoline-6-carboxamide] | 5.61 | 250 |  |
| Cc1cc2cc(C(=O)N(Cc3ccc(C(O)C(F)(F)F)cc3)Cc3ccc(C(F)(F)F)cn3)ccc2nc1N (centres unmarked) [Example 660, 2-amino-3-methyl-N-[ [4-(2,2,2-trifluoro-1-hydroxyethyl)phenyl]methyl]-N-[[5-(trifluoromethyl)-2-pyridyl]methyl] quinoline-6-carboxamide] | 7.14 | 800 |  |
| Cc1cc2cc(C(=O)N(Cc3ccc(C(F)(F)F)cn3)C(C)CC3CC3)ccc2nc1N (centres unmarked) [Example 696, 2-amino-N-(2-cyclopropyl-1-methylethyl)-3-methyl-N-[[5-(trifluoromethyl)-2-pyridyl]methyl] quinoline-6-carboxamide] | 2.19 | 200 |  |
| Cc1cc2cc(C(=O)N(Cc3ccc[nH]3)Cc3ccnc4[nH]ccc34)ccc2nc1N [Example 689, 2-amino-3-methyl-N-(1H-pyrrolo[2,3-b]pyridin-4-ylmethyl)-N-(1H-pyrrol-2-ylmethyl)quinoline-6-carboxamide] | 2.94 | 330 |  |
| C#CCN(Cc1ccc(C(F)(F)F)cn1)C(=O)c1ccc2nc(N)c(C)cc2c1 [Example 655, 2-amino-3-methyl-N-prop-2-ynyl-N-[[5-(trifluoromethyl)-2-pyridyl]methyl] quinoline-6-carboxamide] | 4 to 9 | 550 |  |
| Cc1cc2cc(C(=O)N(Cc3cccc(-c4ncc[nH]4)c3)Cc3ccc(C(F)(F)F)cn3)ccc2nc1N [Example 650, 2-amino-N-[ [3-(1 H-imidazol-2-yl)phenyl]methyl] -3-methyl-N-[ [5-(trifluoromethyl)-2-pyridyl]methyl] quinoline-6-carboxamide] | 2.21 | 370 |  |
| Cc1cc2cc(C(=O)N(Cc3ccc(C(F)(F)F)cn3)C(C)c3cccc(O)c3)ccc2nc1N (centres unmarked) [Example 663, 2-amino-N-[1-(3-hydroxyphenyl)ethyl] -3-methyl-N-[[5-(trifluoromethyl)-2-pyridyl]methyl] quinoline-6-carboxamide] | 1.7 | 37 |  |
| Cc1cc2cc(C(=O)N(Cc3ccc(C(F)(F)F)cn3)C(C)C(C)C)ccc2nc1N (centres unmarked) [Example 642, 2-amino-N-(1,2-dimethylpropyl)-3-methyl-N-[[5-(trifluoromethyl)-2-pyridyl]methyl] quinoline-6-carboxamide] | 2.55 | 86 |  |
| COc1cccc2c1OCCC2N(Cc1ccc(C(F)(F)F)cn1)C(=O)c1ccc2nc(N)c(C)cc2c1 (centres unmarked) [Example 630, 2-amino-N-(8-methoxychroman-4-yl)-3-methyl-N-[[5-(trifluoromethyl)-2-pyridyl]methyl] quinoline-6-carboxamide] | 4.58 | 33 |  |
| CC#CCN(Cc1ccc(C(F)(F)F)cn1)C(=O)c1ccc2nc(N)c(C)cc2c1 [Example 657, 2-amino-N-but-2-ynyl-3-methyl-N-[[5-(trifluoromethyl)-2-pyridyl]methyl] quinoline-6-carboxamide] | 5.34 | 620 |  |
| COc1ccnc2c1CCCC2N(Cc1ccc(C(F)(F)F)cn1)C(=O)c1ccc2nc(N)c(C)cc2c1 (centres unmarked) [Example 666, 2-amino-N-(4-methoxy-5,6,7,8-tetrahydroquinolin-8-yl)-3-methyl-N-[[5-(trifluoromethyl)-2-pyridyl]methyl] quinoline-6-carboxamide] | 3.93 | 41 |  |
| Cc1cc2cc(C(=O)N(Cc3ccc(C(F)(F)F)cn3)C3CCc4[nH]cnc4C3)ccc2nc1N (centres unmarked) [Example 670, 2-amino-3-methyl-N-(4,5,6,7-tetrahydro-1H-benzimidazol-5-yl)-N-[[5-(trifluoromethyl)-2-pyridyl]methyl] quinoline-6-carboxamide] | 5.15 | 860 |  |
| Cc1cc2cc(C(=O)N(Cc3ccc(C(F)(F)F)cn3)C3CCCC4OCCC43)ccc2nc1N (centres unmarked) [Example 633, N-(2,3,3a,4,5,6,7,7a-octahydrobenzofuran-4-yl)-2-amino-3-methyl-N-[[5-(trifluoromethyl)-2-pyridyl]methyl] quinoline-6-carboxamide] | 4.8 | 330 |  |
| Cc1cc2cc(C(=O)N(Cc3ccc(C(F)(F)F)cn3)C3CCC4CCCC4C3)ccc2nc1N (centres unmarked) [Example 669, N-(2,3,3a,4,5,6,7,7a-octahydro-1H-inden-5-yl)-2-amino-3-methyl-N-[[5-(trifluoromethyl)-2-pyridyl]methyl] quinoline-6-carboxamide] | 8.5 | 820 |  |
| Cc1cc2cc(C(=O)N(Cc3ccc(N4CCCC4=O)cc3)Cc3ccc(C(F)(F)F)cn3)ccc2nc1N [Example 645, 2-amino-3-methyl-N-[[4-(2-oxopyrrolidin-1-yl)phenyl]methyl] -N-[[5-(trifluoromethyl)-2-pyridyl]methyl] quinoline-6-carboxamide] | 5.93 | > 1000 |  |
